pIC50: −log10 of the molar value.
Molecular target: T1, GSK3β (Homo sapiens, UniProt P49841)
T1 construct: gene GSK3B
Assay: ADP-Glo kinase assay with GSK3β, GSK3β substrate and […] ATP
Type: biochemical

T1 sequence (P49841 whole entry): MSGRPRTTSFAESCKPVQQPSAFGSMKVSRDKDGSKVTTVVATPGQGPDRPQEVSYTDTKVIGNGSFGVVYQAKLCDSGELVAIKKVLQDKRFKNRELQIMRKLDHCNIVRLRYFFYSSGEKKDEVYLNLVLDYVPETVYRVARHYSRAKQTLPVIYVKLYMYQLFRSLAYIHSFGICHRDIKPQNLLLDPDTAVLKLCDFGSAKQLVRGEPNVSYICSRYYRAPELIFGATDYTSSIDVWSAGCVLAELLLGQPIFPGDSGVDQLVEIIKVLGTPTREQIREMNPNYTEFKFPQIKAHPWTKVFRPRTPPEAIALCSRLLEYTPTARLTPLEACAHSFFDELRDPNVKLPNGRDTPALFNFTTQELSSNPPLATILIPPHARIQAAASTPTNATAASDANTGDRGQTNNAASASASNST

## COc1cc(O)c2c(c1)oc(=O)c1c3cc(O)c(O)cc3oc21 [wedelolactone]
  pIC50: 4.66

— article PMC4997609, “Wedelolactone enhances osteoblastogenesis by regulating Wnt/β-catenin signaling pathway but suppresses osteoclastogenesis by NF-κB/c-fos/NFATc1 pathway” (Scientific Reports, 2016)
